Assays:
[1] = tested on: MDA-MB-231 breast cancer cells xenografted together with HBF1203 breast stromal cells; assay: MDA-MB-231/HBF1203 xenograft, tumor end volume after chemotherapy and/or PDK4-IN; format: in vivo, SCID mice; conditions: PDK4-IN 10.0 mg/kg combined with DOX 1.0 mg/kg i.p.
Method: All experimental mouse experiments were carried out in strict accordance with the relevant regulations of the Institutional Animal Care and Use Committee (IACUC), Shanghai Institutes for Biological Sciences, Chinese Academy of Sciences. Immuno-deficient mice ICR SCID mice (body weight about 25 g) aged about 6 weeks were used for animal experiments related to the present disclosure. Stromal cells PSC27 and epithelial cells were mixed at a ratio of 1:4, and each graft contained 1.25×10^6 cells for tissue remodeling. The xenograft tumors were implanted into mice by subcutaneous transplantation, and the animals were euthanized 8 weeks after the end of the transplantation surgery. Tumor volume was calculated according to the following formula: V=(π/6)×(([…])/2)^3 (V, volume; 1, length; w, width).
For pre-clinical chemotherapeutic studies, mice received subcutaneous implantation were given standard laboratory diets. […] The time points were on the first day of the third, fifth and seventh weeks, with a total of 3 cycles of treatment, and each cycle lasted for 2 weeks. After the course of treatment, mouse […] were collected for tumor measurement and histological analysis. […] In order to cause systemic expression of SASP factors induced by chemotherapy, MIT was administered to mice through intravenous infusion according to the above steps and sequence, but the dose was reduced to 0.1 mg/kg body weight/each time (the cumulative dose of MIT received in the whole course of treatment was 0.3 mg/kg body weight) to reduce drug-related toxicity. The chemotherapy experiment ended at the end of the 8th week, and the mice were dissected immediately after sacrifice, and the xenograft tumors were collected and used for pathological system analysis.
To assess the in vivo effects of chemotherapeutic drugs and/or PDK4-IN treatment in different tumor types, the inventors subsequently generated xenografts composed of breast cancer cell line MDA-MB-231 and breast stromal cell line HBF1203 to replicate the preclinical intervention observed in prostate cancer xenografts.

[2] = tested on: senescent human stromal cells (PSC27); assay: Seahorse XF24 metabolic profiling of senescent stromal cells; format: cell-based; set-up: ATP production / basal respiration / maximal respiration: dose or concentration left out as unconfirmed
Method: FIG. 26. OCR of stromal cells was measured using an XF24 Extracellular Flux Analyzer. In simple, 1.5 μM oligomycin, 0.5 μM FCCP and 0.5 μM Rot/Ant were injected sequentially in order into each well. The glycolysis rate was calculated as the difference between the maximum rate measured before injection and the last rate measured before glucose injection. All Seahorse data were normalized to cell numbers, with all metabolic parameters automatically calculated by WAVE software equipped in the Seahorse. OCR, oxygen consumption rate. Oligo, oligomycin. FCCP, carbonyl cyanide 4-(trifluoromethoxy) phenylhydrazone. Rot, rotenone. Ant, antimycin. […]
After 6 hours of drug treatment, the cells were simply washed 3 times with PBS, left in the culture medium for 7-˜10 days, and then the subsequent experiments were performed.
Next, the inventors measured the levels of extracellular fluids. […] Among them, HK2 and LDHA are glycolysis-related factors, whereas IDH2, IDH3, OGDH and CS are TCA cycle-involving enzymes. As overexpression of PDK4 per se in normal cells neither caused or abrogated senescence, nor affected the SASP (FIG. 38), the inventors reasoned that senescent cell metabolism was correlated with and likely underpinned by expression of key factors involved in glucose consumption and linked with production of pyruvate, lactate and multiple other metabolites.

[3] = tested on: PC3 cells xenografted together with PSC27 cells; assay: PC3/PSC27 xenograft, tumor end volume after chemotherapy and/or PDK4-IN; format: in vivo, SCID mice
Method: All experimental mouse experiments were carried out in strict accordance with the relevant regulations of the Institutional Animal Care and Use Committee (IACUC), Shanghai Institutes for Biological Sciences, Chinese Academy of Sciences. Immuno-deficient mice ICR SCID mice (body weight about 25 g) aged about 6 weeks were used for animal experiments related to the present disclosure. Stromal cells PSC27 and epithelial cells were mixed at a ratio of 1:4, and each graft contained 1.25×10^6 cells for tissue remodeling. The xenograft tumors were implanted into mice by subcutaneous transplantation, and the animals were euthanized 8 weeks after the end of the transplantation surgery. […] For pre-clinical chemotherapeutic studies, mice received subcutaneous implantation were given standard laboratory diets. […] The time points were on the first day of the third, fifth and seventh weeks, with a total of 3 cycles of treatment, and each cycle lasted for 2 weeks. After the course of treatment, mouse […] were collected for tumor measurement and histological analysis. […] The chemotherapy experiment ended at the end of the 8th week, and the mice were dissected immediately after sacrifice, and the xenograft tumors were collected and used for pathological system analysis. To closely mimic clinical conditions involving chemotherapeutic drugs, the inventors designed a preclinical regimen incorporating a genotoxic drug (MIT) and/or the PDK4 inhibitor (PDK4-IN) (FIG. 63).

[4] = tested on: tumor tissues of mice (PC3/PSC27 xenografts); assay: In vivo cellular senescence and SASP expression in xenograft tumors (LCM transcripts, SA-β-Gal staining); set-up: species or system SCID mice
Text: FIG. 66. Transcript assessment of several canonical SASP factors expressed in stromal cells isolated from tumors in SCID mice. LCM isolation, total RNA preparation and expression assays on tissues from animals with simultaneously implanted stromal cells and cancer cells. Note that the group measured as of the lowest value was used as normalization baseline per factor.
FIG. 67. Transcript assessment of individual canonical SASP factors (AREG), aging markers (p16/p21) and PDK4 expressed in stromal cells isolated from tumors in SCID mice. LCM isolation, total RNA preparation and expression assays on tissues from animals with simultaneously implanted stromal cells and cancer cells. Note that the group measured as of the lowest value was used as normalization baseline per factor.
FIG. 68. Representative IHC images of SA-β-Gal staining chromatograms from tissues isolated from animals subjected to placebo or drug treatments. Scale bar, 100 μm. Right, Comparative statistical analysis of SA-β-Gal staining for tissues in mice mentioned above.
Senescence-associated β-galactosidase (SA-β-Gal) staining was performed following a previously reported procedure (Debacq-Chainiaux et al., 2009). Briefly, cells in culture dishes were washed with PBS and fixed at room temperature. Cells were fixed in 2% formaldehyde and 0.2% glutaraldehyde for 3 minutes. SA-β-Gal was used for staining with freshly prepared staining solution overnight at 37° C. Images were taken on the next day and the percentage of positive cells per unit area was calculated.
For pre-clinical chemotherapeutic studies, mice received subcutaneous implantation were given standard laboratory diets. […] The time points were on the first day of the third, fifth and seventh weeks, with a total of 3 cycles of treatment, and each cycle lasted for 2 weeks. After the course of treatment, mouse […] were collected for tumor measurement and histological analysis. […]

[5] = senescence-associated change, PDK4-IN treated
[6] = PDK4-IN 10.0 mg/kg combined with MIT 0.2 mg/kg i.p., end of 8-week regimen

In the case of O=C1c2ccccc2C(=O)c2c1cccc2-c1cnn(C2CCNCC2)c1 [PDK4-IN], the “further decline of tumor volume on the basis of doxorubicin (DOX)” value [1] is reported as 39.8%, the “tumor size reduction in total compared to the control group” value [1] is reported as 69.5% and the “H^+ (proton) leak” value [2, 5] is reported as “reversed changes”. The lactate production [2, 5] was “reversed changes”, the non-mitochondrial oxygen consumption [2, 5] was “reversed changes” and the pH fluctuation [2, 5] was “reversed changes”. The ATP production ([2]; senescent cells, PDK4-IN-1) was “further promoted”, the basal respiration ([2]; senescent cells, PDK4-IN-1) was “further promoted” and the maximal respiration ([2]; senescent cells, PDK4-IN-1) was “further promoted”. For the same molecule, the “further decline of tumor volume over MIT alone” value [3, 6] was 35.5%, the “total tumor shrinkage compared to the control group” value [3, 6] was 72.6% and the “effect on tumor volume as single agent” value ([3]; PDK4-IN alone, 10.0 mg/kg i.p.) was “did not provide noticeable benefits”. The “SA-β-gal positivity in tumor tissues” value ([4]; histological staining, FIG. 68) was “neither induced senescence nor inhibited senescence” and the “cellular senescence / SASP factor and senescence marker expression in vivo” value ([4]; single agent or in combination with MIT, FIGS. 66-67) was “neither induced nor affected cellular senescence”.

— patent publication US20260137671A1, “PDK4 as a Cell-Aging Intervention Target and Its Use in Chemotherapy and Anticancer” (Shanghai Institute of Nutrition and Health, Chinese Academy …, priority 2022, published 2026)
